# Test results from US20100267561A1, “HERBICIDAL PYRIDAZINONE DERIVATIVES” (priority 2007, published 2010).
# Columns and labels:
# Format in all cases: in vivo
# [1] = tested on: cocklebur (Xanthium strumarium); assay: Test B pre-/postemergence plant response
# Excerpt: (§1) Seeds of plant species selected from blackgrass (Alopecurus myosuroides), downy bromegrass (Bromus tectorum), green foxtail (Setaria viridis), Italian ryegrass (Lolium multiflorum), wheat (Triticum aestivum), wild oat (Avena fatua), catchweed bedstraw (Galium aparine), bermudagrass (Cynodon dactylon), surinam grass (Brachiaria decumbens), cocklebur (Xanthium strumarium), corn (Zea mays), large crabgrass (Digitaria sanguinalis), woolly cupgrass (Eriochloa villosa), giant foxtail (Setaria faberii), goosegrass (Eleusine indica), johnsongrass (Sorghum halepense), kochia (Kochia scoparia), lambsquarters (Chenopodium album), morningglory (Ipomoea coccinea), eastern black (E.B.) nightshade (Solanum ptycanthum), yellow nutsedge (Cyperus esculentus), pigweed (Amaranthus retroflexus), common ragweed (Ambrosia elation), Russian thistle (Salsola iberica), soybean (Glycine max), common (oilseed) sunflower (Helianthus annuus), and velvetleaf (Abutilon theophrasti) were planted and treated preemergence with test chemicals formulated in a non-phytotoxic solvent mixture which included a surfactant.
# (§2) At the same time, plants selected from these crop and weed species and also winter barley (Hordeum vulgare), canarygrass (Phalaris minor), chickweed (Stellaria media) and windgrass (Apera spica-venti) were treated with postemergence applications of some of the test chemicals formulated in the same manner. Plants ranged in height from 2 to 18 cm (1- to 4-leaf stage) for postemergence treatments.
# (§3) Plant species in the flooded paddy test consisted of rice (Oryza sativa), umbrella sedge (Cyperus difformis), ducksalad (Heteranthera limosa) and barnyardgrass (Echinochloa crus-galli) grown to the 2-leaf stage for testing. At time of treatment, test pots were flooded to 3 cm above the soil surface, treated by application of test compounds directly to the paddy water, and then maintained at that water depth for the duration of the test. Treated plants and controls were maintained in a greenhouse for 13 to 15 days, after which time all species were compared to controls and visually evaluated. Plant response ratings, summarized in Table B, are based on a scale of 0 to 100 where 0 is no effect and 100 is complete control. A dash (-) response means no test result.
# [2] = tested on: Italian ryegrass (Lolium multiflorum); assay: Test B pre-/postemergence plant response
# Excerpt: as §1, §2, §3
# [3] = tested on: bermudagrass (Cynodon dactylon); assay: Test B pre-/postemergence plant response
# Excerpt: as §1, §2, §3
# [4] = tested on: giant foxtail (Setaria faberii); assay: Test B pre-/postemergence plant response
# Excerpt: as §1, §2, §3
# [5] = tested on: woolly cupgrass (Eriochloa villosa); assay: Test B pre-/postemergence plant response
# Excerpt: as §1, §2, §3
# [6] = tested on: corn (Zea mays); assay: Test B pre-/postemergence plant response
# Excerpt: as §1, §2, §3
# [7] = tested on: yellow nutsedge (Cyperus esculentus); assay: Test B pre-/postemergence plant response
# Excerpt: as §1, §2, §3
# [8] = tested on: velvetleaf (Abutilon theophrasti); assay: Test B pre-/postemergence plant response
# Excerpt: as §1, §2, §3
# [9] = tested on: downy bromegrass (Bromus tectorum); assay: Test B pre-/postemergence plant response
# Excerpt: as §1, §2, §3
# [10] = tested on: rice (Oryza sativa); assay: Test B flooded paddy test plant response
# How it was run: (§4)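 Compounds were added directly to paddy water over 2-leaf-stage plants in pots flooded 3 cm above soil, water depth maintained. Visual injury scored against controls after 13 to 15 days in greenhouse, 0 (none) to 100 (complete control); dash indicates no result.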
# [11] = tested on: barnyardgrass (Echinochloa crus-galli); assay: Test B flooded paddy test plant response
# How it was run: as §4
# [12] = tested on: ducksalad (Heteranthera limosa); assay: Test B flooded paddy test plant response
# How it was run: as §4
# [13] = tested on: umbrella sedge (Cyperus difformis); assay: Test B flooded paddy test plant response
# How it was run: as §4
# [14] = Postemergence, 16 g ai/ha, scale 0 to 100
# [15] = Postemergence, 31 g ai/ha, scale 0 to 100, 0 no effect, 100 complete control
# [16] = Postemergence, 62 g ai/ha, scale 0 to 100
# [17] = Postemergence, 125 g ai/ha, scale 0 to 100
# [18] = Preemergence, 16 g ai/ha, scale 0 to 100 (0 no effect, 100 complete control)
# [19] = Preemergence, 31 g ai/ha, 0 to 100 scale, 0 no effect, 100 complete control
# [20] = Preemergence, 62 g ai/ha, scale 0 to 100
# [21] = Preemergence, 125 g ai/ha, scale 0 to 100
# [22] = Flood (flooded paddy test), 62 g ai/ha, scale 0 to 100, 0 no effect, 100 complete control
# [23] = Flood (flooded paddy test), 125 g ai/ha, scale 0 to 100, 0 no effect, 100 complete control
# [24] = Flood (flooded paddy test), 250 g ai/ha, scale 0 to 100, 0 no effect, 100 complete control
# [25] = Flood, 31 g ai/ha, scale 0 to 100
# [26] = 8 g ai/ha, postemergence, 0-100 scale
# [27] = Postemergence, 31 g ai/ha, scale 0 to 100
# [28] = Postemergence, 62 g ai/ha, scale 0 to 100, 0 no effect, 100 complete control
structure (smiles),measurement,setting,value
CCc1cc(-c2ccc(C(F)(F)F)cc2)nn1-c1c(OC(=O)OC(C)C)cnn(C)c1=O [Compound 12],"Plant response rating, Cocklebur",[1]; [14],0
same,"Plant response rating, Cocklebur",[1]; [15],0
same,"Plant response rating, Cocklebur",[1]; [16],0
same,"Plant response rating, Cocklebur",[1]; [17],0
same,"Plant response rating, Cocklebur",[1]; [18],0
same,"Plant response rating, Cocklebur",[1]; [19],0
same,"Plant response rating, Cocklebur",[1]; [20],0
same,"Plant response rating, Cocklebur",[1]; [21],0
same,"Plant response rating, Ryegrass, Italian",[2]; [14],100
same,"Plant response rating, Ryegrass, Italian",[2]; [15],100
same,"Plant response rating, Ryegrass, Italian",[2]; [16],100
same,"Plant response rating, Ryegrass, Italian",[2]; [17],100
same,"Plant response rating, Ryegrass, Italian",[2]; [18],90
same,"Plant response rating, Ryegrass, Italian",[2]; [19],95
same,"Plant response rating, Ryegrass, Italian",[2]; [20],100
same,"Plant response rating, Ryegrass, Italian",[2]; [21],100
same,"Plant response rating, Bermudagrass",[3]; [14],100
same,"Plant response rating, Bermudagrass",[3]; [15],100
same,"Plant response rating, Bermudagrass",[3]; [16],100
same,"Plant response rating, Bermudagrass",[3]; [17],100
same,"Plant response rating, Bermudagrass",[3]; [18],100
same,"Plant response rating, Bermudagrass",[3]; [19],100
same,"Plant response rating, Bermudagrass",[3]; [20],100
same,"Plant response rating, Bermudagrass",[3]; [21],100
same,"Plant response rating, Foxtail, Giant",[4]; [14],100
same,"Plant response rating, Foxtail, Giant",[4]; [15],100
same,"Plant response rating, Foxtail, Giant",[4]; [16],100
same,"Plant response rating, Foxtail, Giant",[4]; [17],100
same,"Plant response rating, Foxtail, Giant",[4]; [18],100
same,"Plant response rating, Foxtail, Giant",[4]; [19],100
same,"Plant response rating, Foxtail, Giant",[4]; [20],100
same,"Plant response rating, Foxtail, Giant",[4]; [21],100
same,"Plant response rating, Cupgrass, Woolly",[5]; [14],100
same,"Plant response rating, Cupgrass, Woolly",[5]; [15],100
same,"Plant response rating, Cupgrass, Woolly",[5]; [16],100
same,"Plant response rating, Cupgrass, Woolly",[5]; [17],100
same,"Plant response rating, Cupgrass, Woolly",[5]; [18],80
same,"Plant response rating, Cupgrass, Woolly",[5]; [19],85
same,"Plant response rating, Cupgrass, Woolly",[5]; [20],98
same,"Plant response rating, Cupgrass, Woolly",[5]; [21],100
same,"Plant response rating, Corn",[6]; [14],100
same,"Plant response rating, Corn",[6]; [15],100
same,"Plant response rating, Corn",[6]; [16],100
same,"Plant response rating, Corn",[6]; [17],100
same,"Plant response rating, Corn",[6]; [18],70
same,"Plant response rating, Corn",[6]; [19],75
same,"Plant response rating, Corn",[6]; [20],95
same,"Plant response rating, Corn",[6]; [21],95
same,"Plant response rating, Nutsedge, Yellow",[7]; [14],0
same,"Plant response rating, Nutsedge, Yellow",[7]; [15],0
same,"Plant response rating, Nutsedge, Yellow",[7]; [16],0
same,"Plant response rating, Nutsedge, Yellow",[7]; [17],0
same,"Plant response rating, Nutsedge, Yellow",[7]; [18],0
same,"Plant response rating, Nutsedge, Yellow",[7]; [19],0
same,"Plant response rating, Nutsedge, Yellow",[7]; [20],0
same,"Plant response rating, Nutsedge, Yellow",[7]; [21],0
same,"Plant response rating, Velvetleaf",[8]; [14],0
same,"Plant response rating, Velvetleaf",[8]; [15],0
same,"Plant response rating, Velvetleaf",[8]; [16],0
same,"Plant response rating, Velvetleaf",[8]; [17],30
same,"Plant response rating, Velvetleaf",[8]; [18],0
same,"Plant response rating, Velvetleaf",[8]; [19],0
same,"Plant response rating, Velvetleaf",[8]; [20],0
same,"Plant response rating, Velvetleaf",[8]; [21],0
same,"Plant response rating, Bromegrass, Downy",[9]; [14],85
same,"Plant response rating, Bromegrass, Downy",[9]; [15],85
same,"Plant response rating, Bromegrass, Downy",[9]; [16],85
same,"Plant response rating, Bromegrass, Downy",[9]; [18],0
same,"Plant response rating, Bromegrass, Downy",[9]; [19],0
same,"Plant response rating, Bromegrass, Downy",[9]; [20],70
same,"Plant response rating, Bromegrass, Downy",[9]; [21],75
same,"Plant response rating, Rice",[10]; [22],20
same,"Plant response rating, Rice",[10]; [23],70
same,"Plant response rating, Rice",[10]; [24],80
same,"Plant response rating, Rice",[10]; [25],0
same,"Plant response rating, Barnyardgrass",[11]; [22],30
same,"Plant response rating, Barnyardgrass",[11]; [23],60
same,"Plant response rating, Barnyardgrass",[11]; [24],80
same,"Plant response rating, Barnyardgrass",[11]; [25],0
same,"Plant response rating, Ducksalad",[12]; [22],0
same,"Plant response rating, Ducksalad",[12]; [23],40
same,"Plant response rating, Ducksalad",[12]; [24],50
same,"Plant response rating, Ducksalad",[12]; [25],0
same,"Plant response rating, Sedge, Umbrella",[13]; [22],40
same,"Plant response rating, Sedge, Umbrella",[13]; [23],60
same,"Plant response rating, Sedge, Umbrella",[13]; [24],60
same,"Plant response rating, Sedge, Umbrella",[13]; [25],0
Cc1nn(C)c(=O)c(-n2nc(-c3ccc(Cl)cc3)cc2Cl)c1O [Compound 59],Cocklebur plant response rating,[1]; [26],0
same,"Plant response rating, Cocklebur",[1]; [14],0
same,"Plant response rating, Cocklebur",[1]; [27],0
same,"Plant response rating, Cocklebur",[1]; [28],0
same,"Ryegrass, Italian plant response rating",[2]; [26],80
same,"Plant response rating, Ryegrass, Italian",[2]; [14],80
same,"Plant response rating, Ryegrass, Italian",[2]; [27],85
same,"Plant response rating, Ryegrass, Italian",[2]; [28],85
same,Bermudagrass plant response rating,[3]; [26],0
same,"Plant response rating, Bermudagrass",[3]; [14],0
same,"Plant response rating, Bermudagrass",[3]; [27],0
same,"Plant response rating, Bermudagrass",[3]; [28],20
same,"Foxtail, Giant plant response rating",[4]; [26],80
same,"Plant response rating, Foxtail, Giant",[4]; [14],85
same,"Plant response rating, Foxtail, Giant",[4]; [27],90
same,"Plant response rating, Foxtail, Giant",[4]; [28],95
same,"Cupgrass, Woolly plant response rating",[5]; [26],55
same,"Plant response rating, Cupgrass, Woolly",[5]; [14],60
same,"Plant response rating, Cupgrass, Woolly",[5]; [27],65
same,"Plant response rating, Cupgrass, Woolly",[5]; [28],85
same,Corn plant response rating,[6]; [26],0
same,"Plant response rating, Corn",[6]; [14],85
same,"Plant response rating, Corn",[6]; [27],85
same,"Plant response rating, Corn",[6]; [28],90
same,"Nutsedge, Yellow plant response rating",[7]; [26],0
same,"Plant response rating, Nutsedge, Yellow",[7]; [14],0
same,"Plant response rating, Nutsedge, Yellow",[7]; [27],0
same,"Plant response rating, Nutsedge, Yellow",[7]; [28],0
same,Velvetleaf plant response rating,[8]; [26],0
same,"Plant response rating, Velvetleaf",[8]; [14],0
same,"Plant response rating, Velvetleaf",[8]; [27],0
same,"Plant response rating, Velvetleaf",[8]; [28],0
same,"Bromegrass, Downy plant response rating",[9]; [26],0
same,"Plant response rating, Bromegrass, Downy",[9]; [14],5
same,"Plant response rating, Bromegrass, Downy",[9]; [27],5
same,"Plant response rating, Bromegrass, Downy",[9]; [28],10
same,"Plant response rating, Rice",[10]; [22],10
same,"Plant response rating, Rice",[10]; [24],25
same,"Plant response rating, Barnyardgrass",[11]; [22],0
same,"Plant response rating, Barnyardgrass",[11]; [24],50
same,"Plant response rating, Ducksalad",[12]; [22],0
same,"Plant response rating, Ducksalad",[12]; [24],20
same,"Plant response rating, Sedge, Umbrella",[13]; [22],0
same,"Plant response rating, Sedge, Umbrella",[13]; [24],30
